Results from patent US6737383B1, “Herbicidal oxadiazolidines” (priority 1999, dated 2004).

Tests used:
pigweed = experiment: Test B pre/postemergence pigweed; type: in vivo, Amaranthus retroflexus; conditions: for Redroot pigweed plant response rating (0 to 10 scale): 0 is no effect
Method in brief: (§1)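 Herbicidal effect was estimated by eye on a ten-point control scale after plants spent twelve to sixteen days in a greenhouse following soil or foliar treatment. Foliar sprays targeted plants at one to four leaves; all doses were formulated in a non-phytotoxic solvent with surfactant.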

rape = experiment: Test B pre/postemergence rape; type: in vivo, Brassica napus; conditions: for Rape plant response rating (0 to 10 scale): 0 is no effect
Method in brief: as §1

soybean = experiment: Test B pre/postemergence soybean; type: in vivo, Glycine max; conditions: for Soybean plant response rating (0 to 10 scale): 0 is no effect
Method in brief: as §1

sugar beet = experiment: Test B pre/postemergence sugar beet; type: in vivo, Beta vulgaris; conditions: for Sugarbeets plant response rating (0 to 10 scale): 0 is no effect
Method in brief: as §1

[1] = Postemergence, Rate 125 g/ha, scale of 0 to 10 where 0 is no effect and 10 is complete control
[2] = Preemergence, Rate 62 g/ha, scale of 0 to 10 where 0 is no effect and 10 is complete control
[3] = Preemergence, Rate 125 g/ha, 10 is complete control
[4] = Preemergence, Rate 250 g/ha, scale 0 to 10, 0 is no effect, 10 is complete control
[5] = Preemergence, Rate 500 g/ha, scale 0 to 10 (0 no effect, 10 complete control)
[6] = Rate 62 g/ha, Postemergence, scale of 0 to 10 where 0 is no effect and 10 is complete control
[7] = Rate 250 g/ha, Postemergence, scale 0 to 10, 0 is no effect, 10 is complete control
[8] = Rate 500 g/ha, Postemergence, scale 0 to 10
[9] = Rate 125 g/ha, Postemergence, scale 0 to 10

CC(C)N(C(=O)n1oc(=O)n(-c2nc(Cl)sc2Cl)c1=O)c1ccc(F)cc1 [Compound 160]
0: Redroot pigweed plant response rating (pigweed; [1]) | Redroot pigweed plant response rating (pigweed; [2]) | Redroot pigweed plant response rating (0 to 10 scale) (pigweed; [3]) | Redroot pigweed plant response rating (pigweed; [4]) | Redroot pigweed plant response rating (pigweed; [5]) | Redroot pigweed plant response rating (pigweed; [6]) | Plant response rating, Redroot pigweed (pigweed; [7]) | Redroot pigweed plant response rating (pigweed; [8]) | Rape plant response rating (rape; [1]) | Rape plant response rating (rape; [2]) | Rape plant response rating (0 to 10 scale) (rape; [3]) | Rape plant response rating (rape; [4]) | Rape plant response rating (rape; [5]) | Rape plant response rating (rape; [6]) | Plant response rating, Rape (rape; [7]) | Rape plant response rating (rape; [8]) | Soybean plant response rating (soybean; [1]) | Soybean plant response rating (soybean; [2]) | Soybean plant response rating (0 to 10 scale) (soybean; [3]) | Soybean plant response rating (soybean; [4]) | Soybean plant response rating (soybean; [5]) | Soybean plant response rating (soybean; [6]) | Plant response rating, Soybean (soybean; [7]) | Soybean plant response rating (soybean; [8]) | Sugarbeets plant response rating (sugar beet; [1]) | Sugarbeets plant response rating (sugar beet; [2]) | Sugarbeets plant response rating (0 to 10 scale) (sugar beet; [3]) | Sugarbeets plant response rating (sugar beet; [4]) | Sugarbeets plant response rating (sugar beet; [5]) | Sugarbeets plant response rating (sugar beet; [6]) | Plant response rating, Sugarbeets (sugar beet; [7]) | Sugarbeets plant response rating (sugar beet; [8])

Cc1ccccc1-n1c(=O)on(C(=O)N(c2ccc(-c3ccccc3)cc2)C(C)C)c1=O [Compound 187]
0: Redroot pigweed plant response rating (pigweed; [2]) | Redroot pigweed plant response rating (0 to 10 scale) (pigweed; [3]) | Redroot pigweed plant response rating (pigweed; [4]) | Redroot pigweed plant response rating (pigweed; [5]) | Redroot pigweed plant response rating (pigweed; [6]) | Redroot pigweed plant response rating (pigweed; [9]) | Plant response rating (0 to 10; 0 is no effect, 10 is complete control), Redroot pigweed (pigweed; Rate 250 g/ha, Postemergence) | Redroot pigweed plant response rating (pigweed; [8]) | Rape plant response rating (rape; [2]) | Rape plant response rating (0 to 10 scale) (rape; [3]) | Rape plant response rating (rape; [4]) | Rape plant response rating (rape; [5]) | Rape plant response rating (rape; [6]) | Rape plant response rating (rape; [9]) | Plant response rating (0 to 10; 0 is no effect, 10 is complete control), Rape (rape; Rate 250 g/ha, Postemergence) | Rape plant response rating (rape; [8]) | Soybean plant response rating (soybean; [2]) | Soybean plant response rating (0 to 10 scale) (soybean; [3]) | Soybean plant response rating (soybean; [4]) | Soybean plant response rating (soybean; [5]) | Soybean plant response rating (soybean; [6]) | Soybean plant response rating (soybean; [9]) | Plant response rating (0 to 10; 0 is no effect, 10 is complete control), Soybean (soybean; Rate 250 g/ha, Postemergence) | Soybean plant response rating (soybean; [8]) | Sugarbeets plant response rating (sugar beet; [2]) | Sugarbeets plant response rating (0 to 10 scale) (sugar beet; [3]) | Sugarbeets plant response rating (sugar beet; [4]) | Sugarbeets plant response rating (sugar beet; [5]) | Sugarbeets plant response rating (sugar beet; [6]) | Sugarbeets plant response rating (sugar beet; [9]) | Plant response rating (0 to 10; 0 is no effect, 10 is complete control), Sugarbeets (sugar beet; Rate 250 g/ha, Postemergence) | Sugarbeets plant response rating (sugar beet; [8])
